Numbers after ± are expanded uncertainties.
Assay: molar heat capacity at constant pressure
Conditions: 101.33 kPa, Crystal, Vacuum adiabatic calorimetry

O=C([O-])[O-].[Zn+2] [zinc(II) carbonate]
Conditions | molar heat capacity at constant pressure [J/K/mol]
4.397 K | 0.009408 ± 0.0078
4.399 K | 0.007545 ± 0.0078
4.757 K | 0.006774 ± 0.0078
4.774 K | 0.006545 ± 0.0078
5 K | 0.00773 ± 0.01
5.101 K | 0.008038 ± 0.0078
5.155 K | 0.008164 ± 0.0078
5.346 K | 0.01084 ± 0.0078
5.423 K | 0.0117 ± 0.0078
5.582 K | 0.01132 ± 0.0078
5.688 K | 0.00813 ± 0.0078
5.816 K | 0.01409 ± 0.0078
5.946 K | 0.01317 ± 0.0078
6.06 K | 0.0142 ± 0.0078
6.285 K | 0.01382 ± 0.0078
6.398 K | 0.01585 ± 0.0079
6.723 K | 0.01601 ± 0.0079
6.824 K | 0.01961 ± 0.0079
7.156 K | 0.02326 ± 0.0079
7.254 K | 0.02331 ± 0.0079
7.601 K | 0.02683 ± 0.0079
7.692 K | 0.02785 ± 0.0079
8.054 K | 0.03096 ± 0.0079
8.134 K | 0.03204 ± 0.008
8.509 K | 0.03516 ± 0.008
8.576 K | 0.03774 ± 0.008
8.961 K | 0.04103 ± 0.008
9.021 K | 0.04305 ± 0.008
9.412 K | 0.0479 ± 0.008
9.468 K | 0.05013 ± 0.0081
9.862 K | 0.05547 ± 0.0081
9.915 K | 0.05829 ± 0.0081
10 K | 0.05961 ± 0.01
10.54 K | 0.07294 ± 0.0082
10.59 K | 0.07477 ± 0.0082
11.45 K | 0.09358 ± 0.0083
11.5 K | 0.09604 ± 0.0083
12.37 K | 0.1193 ± 0.0084
12.41 K | 0.1215 ± 0.0084
13.29 K | 0.1517 ± 0.009
13.33 K | 0.153 ± 0.009
14.22 K | 0.1928 ± 0.0097
14.26 K | 0.193 ± 0.0097
15 K | 0.2346 ± 0.012
15.15 K | 0.245 ± 0.011
15.18 K | 0.2446 ± 0.011
16.08 K | 0.2992 ± 0.012
16.12 K | 0.2986 ± 0.012
17.02 K | 0.3595 ± 0.013
17.05 K | 0.3608 ± 0.013
17.97 K | 0.4461 ± 0.016
17.99 K | 0.4463 ± 0.016
18.91 K | 0.535 ± 0.018
18.93 K | 0.5407 ± 0.018
19.85 K | 0.6305 ± 0.02
19.88 K | 0.6346 ± 0.021
20 K | 0.6547 ± 0.014
21.27 K | 0.8212 ± 0.026
21.29 K | 0.8243 ± 0.026
23.14 K | 1.091 ± 0.033
23.17 K | 1.096 ± 0.033
25 K | 1.427 ± 0.017
25.06 K | 1.439 ± 0.043
26.95 K | 1.841 ± 0.054
28.85 K | 2.31 ± 0.067
30 K | 2.613 ± 0.045
30.77 K | 2.836 ± 0.087
32.69 K | 3.401 ± 0.1
34.62 K | 4.038 ± 0.12
35 K | 4.162 ± 0.048
36.33 K | 4.607 ± 0.14
36.56 K | 4.711 ± 0.14
38.5 K | 5.446 ± 0.16
38.58 K | 5.466 ± 0.16
40 K | 6.03 ± 0.052
40.52 K | 6.253 ± 0.047
42.46 K | 7.047 ± 0.05
44.41 K | 7.863 ± 0.054
45 K | 8.122 ± 0.056
46.36 K | 8.699 ± 0.057
48.32 K | 9.572 ± 0.061
50 K | 10.39 ± 0.06
50.28 K | 10.5 ± 0.065
52.24 K | 11.48 ± 0.069
54.21 K | 12.47 ± 0.074
55 K | 12.79 ± 0.07
56.18 K | 13.4 ± 0.078
58.15 K | 14.28 ± 0.082
60 K | 15.28 ± 0.07
60.13 K | 15.34 ± 0.087
62.1 K | 16.36 ± 0.091
64.08 K | 17.36 ± 0.096
65 K | 17.8 ± 0.08
66.07 K | 18.36 ± 0.1
68.03 K | 19.3 ± 0.1
69.94 K | 20.27 ± 0.11
70 K | 20.32 ± 0.08
72.36 K | 21.49 ± 0.12
75 K | 22.79 ± 0.09
75.35 K | 22.97 ± 0.12
78.35 K | 24.46 ± 0.13
79.92 K | 25.19 ± 0.13
80 K | 25.24 ± 0.09
83.21 K | 26.77 ± 0.089
85 K | 27.63 ± 0.1
86.23 K | 28.21 ± 0.092
89.26 K | 29.61 ± 0.096
90 K | 29.96 ± 0.23
92.3 K | 31 ± 0.18
95 K | 32.21 ± 0.23
95.35 K | 32.37 ± 0.18
98.41 K | 33.68 ± 0.18
100 K | 34.37 ± 0.23
101.48 K | 34.99 ± 0.18
104.55 K | 36.23 ± 0.18
105 K | 36.41 ± 0.24
107.64 K | 37.47 ± 0.19
110 K | 38.38 ± 0.24
110.74 K | 38.65 ± 0.19
113.84 K | 39.83 ± 0.19
115 K | 40.26 ± 0.24
116.95 K | 40.98 ± 0.19
120 K | 42.07 ± 0.24
120.07 K | 42.09 ± 0.2
123.2 K | 43.18 ± 0.2
126.34 K | 44.26 ± 0.2
129.51 K | 45.31 ± 0.2
130 K | 45.47 ± 0.25
132.66 K | 46.33 ± 0.2
135.83 K | 47.34 ± 0.2
139 K | 48.32 ± 0.2
140 K | 48.63 ± 0.25
142.19 K | 49.32 ± 0.21
145.38 K | 50.23 ± 0.21
148.58 K | 51.14 ± 0.21
150 K | 51.6 ± 0.25
151.79 K | 52.15 ± 0.21
155.01 K | 53.02 ± 0.21
158.25 K | 53.93 ± 0.21
160 K | 54.36 ± 0.25
161.49 K | 54.75 ± 0.22
164.72 K | 55.64 ± 0.22
167.92 K | 56.45 ± 0.22
170 K | 56.93 ± 0.26
171.08 K | 57.17 ± 0.22
174.21 K | 57.91 ± 0.22
177.3 K | 58.72 ± 0.22
180 K | 59.33 ± 0.26
180.39 K | 59.37 ± 0.23
183.43 K | 60.04 ± 0.23
186.44 K | 60.81 ± 0.23
189.44 K | 61.49 ± 0.23
190 K | 61.57 ± 0.26
192.42 K | 62.17 ± 0.23
195.37 K | 62.73 ± 0.23
198.3 K | 63.33 ± 0.23
200 K | 63.68 ± 0.26
201.2 K | 63.91 ± 0.23
204.09 K | 64.5 ± 0.23
206.97 K | 65.04 ± 0.24
209.83 K | 65.68 ± 0.24
210 K | 65.75 ± 0.27
212.67 K | 66.32 ± 0.24
215.51 K | 66.8 ± 0.24
218.32 K | 67.43 ± 0.24
220 K | 67.73 ± 0.27
221.12 K | 67.91 ± 0.24
223.9 K | 68.47 ± 0.24
226.71 K | 68.96 ± 0.24
229.46 K | 69.59 ± 0.24
230 K | 69.62 ± 0.27
232.21 K | 70.19 ± 0.25
234.93 K | 70.69 ± 0.25
237.65 K | 71.17 ± 0.25
240 K | 71.45 ± 0.27
240.37 K | 71.48 ± 0.25
243.07 K | 71.89 ± 0.25
245.76 K | 72.45 ± 0.25
248.45 K | 72.82 ± 0.25
250 K | 73.2 ± 0.27
251.12 K | 73.38 ± 0.25
253.79 K | 73.81 ± 0.25
256.45 K | 74.15 ± 0.25
259.09 K | 74.66 ± 0.25
260 K | 74.88 ± 0.27
261.74 K | 75.21 ± 0.26
264.38 K | 75.75 ± 0.26
267.01 K | 76.21 ± 0.26
269.71 K | 76.37 ± 0.26
270 K | 76.38 ± 0.28
272.34 K | 76.67 ± 0.26
273.15 K | 76.84 ± 0.28
274.96 K | 77.02 ± 0.26
277.57 K | 77.36 ± 0.26
280 K | 77.83 ± 0.28
280.18 K | 77.77 ± 0.26
282.78 K | 78.17 ± 0.26
285.37 K | 78.56 ± 0.26
287.95 K | 78.94 ± 0.26
290 K | 79.24 ± 0.28
290.53 K | 79.31 ± 0.26
293.11 K | 79.67 ± 0.26
295.68 K | 80.03 ± 0.27
298.15 K | 80.36 ± 0.28
298.24 K | 80.38 ± 0.27
300 K | 80.6 ± 0.28
300.8 K | 80.74 ± 0.27
303.36 K | 81.1 ± 0.27
305.91 K | 81.42 ± 0.27
308.46 K | 81.77 ± 0.27
310 K | 81.91 ± 0.28
311.15 K | 82.06 ± 0.27
313.7 K | 82.4 ± 0.27
316.26 K | 82.71 ± 0.27
318.8 K | 83 ± 0.27
320 K | 83.17 ± 0.28
321.35 K | 83.28 ± 0.27
